Source: ChEMBL document CHEMBL3046967, “Synthesis and Fungicidal Activities of 2-(-Methoxyiminobenzyl)-1-methylimidazole Derivatives” (2001)

Key:
Format in all cases: functional
Podosphaera fuliginea [1] = experiment: Antifungal activity against Podosphaera fuliginea in cucumber at 125 ppm
[2] = tested on: Pseudoperonospora cubensis; experiment: Antifungal activity against Pseudoperonospora cubensis in cucumber at 500 ppm
[3] = tested on: Pseudoperonospora cubensis; experiment: Antifungal activity against Pseudoperonospora cubensis in cucumber at 2 ppm
Podosphaera fuliginea [4] = experiment: Antifungal activity against Podosphaera fuliginea in cucumber at 2 ppm
Podosphaera fuliginea [5] = experiment: Antifungal activity against Podosphaera fuliginea in cucumber at 31.3 ppm
Botrytis cinerea [6] = experiment: Antifungal activity against Botryotinia fuckeliana in cucumber at 500 ppm
[7] = tested on: Pseudoperonospora cubensis; experiment: Antifungal activity against Pseudoperonospora cubensis in cucumber at 31.3 ppm
[8] = tested on: Pseudoperonospora cubensis; experiment: Antifungal activity against Pseudoperonospora cubensis in cucumber at 7.8 ppm
Podosphaera fuliginea [9] = experiment: Antifungal activity against Podosphaera fuliginea in cucumber at 7.8 ppm
Podosphaera fuliginea [10] = experiment: Antifungal activity against Podosphaera fuliginea in cucumber at 500 ppm
[11] = tested on: Pseudoperonospora cubensis; experiment: Antifungal activity against Pseudoperonospora cubensis in cucumber at 125 ppm
Botrytis cinerea [12] = experiment: Antifungal activity against Botryotinia fuckeliana in cucumber at 7.8 ppm

CO/N=C(\c1ccccc1/C=N/OC(C)c1cccc(Cl)c1)c1nccn1C (stereo not drawn)
Activity (Podosphaera fuliginea [1]): 90%
Activity [2]: <50%

CO/N=C(\c1ccccc1/C=N/OC(C)c1ccc(OC(F)(F)F)cc1)c1nccn1C (stereo not drawn)
Activity [3]: 50%
Activity (Podosphaera fuliginea [4]): 90%

CO/N=C(\c1ccccc1COc1ccc(Cl)cn1)c1nccn1C
Activity (Podosphaera fuliginea [5]): 90%
Activity [2]: 50%
Activity (Botrytis cinerea [6]): 50%

CO/N=C(\c1ccccc1/C=N/OC(C)c1ccc(Cl)cc1Cl)c1nccn1C (stereo not drawn)
Activity (Podosphaera fuliginea [5]): 90%
Activity [2]: <50%

CO/N=C(\c1ccccc1/C=N/OC(C)c1ccccc1C(F)(F)F)c1nccn1C (stereo not drawn)
Activity (Podosphaera fuliginea [1]): 90%
Activity [2]: <50%

CO/N=C(\c1ccccc1/C=N/N=C(/C)c1ccc(Cl)cc1)c1nccn1C
Activity (Podosphaera fuliginea [5]): 90%
Activity (Botrytis cinerea [6]): <50%
Activity [7]: 50%

CO/N=C(\c1ccccc1/C=N/OC(C)c1cccc(C(F)(F)F)c1)c1nccn1C (stereo not drawn)
Activity (Podosphaera fuliginea [4]): 90%
Activity [2]: 50%

CO/N=C(\c1ccccc1/C=N/OC(C)c1ccc(C(F)(F)F)cc1)c1nccn1C (stereo not drawn)
Activity [3]: 50%
Activity (Podosphaera fuliginea [4]): 90%
Activity (Botrytis cinerea [6]): <50%

CO/N=C(\c1ccccc1/C=N/OC(C)c1ccc(Cl)cc1)c1nccn1C (stereo not drawn)
Activity (Podosphaera fuliginea [4]): 90%
Activity (Botrytis cinerea [6]): 50%
Activity [8]: 50%

CO/N=C(\c1ccccc1/C=N/OC(C)c1cccc(C)c1)c1nccn1C (stereo not drawn)
Activity (Podosphaera fuliginea [5]): 90%
Activity [2]: <50%

CO/N=C(\c1ccccc1/C=N/N=C(/C)c1ccc(C(F)(F)F)cc1)c1nccn1C
Activity (Podosphaera fuliginea [9]): 90%
Activity (Botrytis cinerea [6]): <50%
Activity [8]: 50%

CO/N=C(\c1ccccc1COc1ccc(C(F)(F)F)cn1)c1nccn1C
Activity (Podosphaera fuliginea [9]): 90%
Activity [2]: 50%
Activity (Botrytis cinerea [6]): 50%

CO/N=C(\c1ccccc1/C=N/OC(C)c1ccc(Br)cc1)c1nccn1C (stereo not drawn)
Activity (Podosphaera fuliginea [9]): 90%
Activity [8]: 50%

CO/N=C(\c1ccccc1/C=N/OC(C)c1ccc(C)cc1)c1nccn1C (stereo not drawn)
Activity (Podosphaera fuliginea [5]): 90%
Activity [2]: <50%

CO/N=C(\c1ccccc1/C=N/N=C(/C)c1ccc(Cl)c(Cl)c1)c1nccn1C
Activity (Podosphaera fuliginea [9]): 90%
Activity (Botrytis cinerea [6]): <50%
Activity [8]: 50%

CO/N=C(\c1ccccc1/C=N/OC(C)c1ccccc1C)c1nccn1C (stereo not drawn)
Activity [2]: <50%
Activity (Podosphaera fuliginea [10]): 90%

CO/N=C(\c1ccccc1COc1ncc(Cl)cc1Cl)c1nccn1C
Activity (Podosphaera fuliginea [9]): 90%
Activity (Botrytis cinerea [6]): 50%
Activity [11]: 50%

CO/N=C(\c1ccccc1/C=N/OC(C)c1ccccc1Cl)c1nccn1C (stereo not drawn)
Activity (Podosphaera fuliginea [1]): 90%
Activity [2]: <50%

CCC(O/N=C/c1ccccc1/C(=N\OC)c1nccn1C)c1ccc(Cl)c(Cl)c1 (stereo not drawn)
Activity (Podosphaera fuliginea [5]): 90%
Activity [8]: 50%

CO/N=C(\c1ccccc1/C=N/OC(C)c1ccc(Cl)c(Cl)c1)c1nccn1C (stereo not drawn)
Activity (Podosphaera fuliginea [4]): 90%
Activity (Botrytis cinerea [6]): 50%
Activity [8]: 50%

CO/N=C(\c1ccccc1/C=N/OC(C)c1ccc(OC)cc1)c1nccn1C (stereo not drawn)
Activity (Podosphaera fuliginea [5]): 90%
Activity [2]: <50%

CO/N=C(\c1ccccc1/C=N/OCc1ccc(Cl)cc1)c1nccn1C
Activity (Podosphaera fuliginea [9]): 90%
Activity [2]: <50%

CO/N=C(\c1ccccc1/C=N/OC(C)c1ccccc1)c1nccn1C (stereo not drawn)
Activity (Podosphaera fuliginea [1]): 90%
Activity [2]: <50%

CO/N=C(\c1ccccc1COc1ccc(Cl)cc1C)c1nccn1C
Activity (Botrytis cinerea [12]): 50%
Activity (Podosphaera fuliginea [4]): 90%
Activity [2]: <50%
